According to the supplement of paper PMC11208160:

Assay: recombinant barcode read abundance after kanamycin selection (control-corrected) (log10(CPM+1)); higher = more efficient recombination; sequences stand for … in AGTGCAGAGAAAATCGGCCAGTTTTCTCTGCCTGCAGTCCGCATGCCGT…AGATTTATGCAGCGGACTGCCTTTCTCCCAAAGTGATAAACCGGACAGTATCATGGACCGGTTTTCCCGGTAATCCGTATTTGCAAGGTTGGTTTCACT; site = the 11-nt target
How it was run: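 In E. coli, a pooled library matched targets to IS621 bridge RNA target-binding loops and was introduced alongside a donor plasmid. Cells went onto chloramphenicol/ampicillin/kanamycin with 0.1 mM IPTG or onto chloramphenicol/ampicillin LB agar as control, in duplicate. Recombination efficiency, from recombinant-junction barcodes as counts per million, is averaged and control-corrected. It is reported as log10(CPM+1).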
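Further: IS621 recombinase and bridge RNA in Escherichia coli cells.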

Sequence | recombinant barcode read abundance (log10)
CAACCGTCTTGGGTTCTAACCTGTTGCCT (site CAACCGACTAG) | 0
CAACCGTCTTGGGTTCTAACCTGTTGCCT (site CAACCGCCTAG) | 0.439
CAACCGTCTTGGGTTCTAACCTGTTGCCT (site CAACCGGCTAG) | 0.0528
CAACCGTCTTGGGTTCTAACCTGTTGCCT (site CAACCGTCTAG) | 1.33
CAACGACCTTGGGTTCTAACCTGTTGCCT (site AAACGACCTAG) | 0.172
CAACGACCTTGGGTTCTAACCTGTTGCCT (site CAACGACCTAG) | 1.75
CAACGACCTTGGGTTCTAACCTGTTGCCT (site GAACGACCTAG) | 0.171
CAACGACCTTGGGTTCTAACCTGTTGCCT (site TAACGACCTAG) | 0.166
CAACGAGCTTGGGTTCTAACCTGTTGCCG (site CAACGAGCTCG) | 0.506
CAACGAGCTTGGGTTCTAACCTGTTGCCG (site CACCGAGCTCG) | 0.186
CAACGAGCTTGGGTTCTAACCTGTTGCCG (site CAGCGAGCTCG) | 0
CAACGAGCTTGGGTTCTAACCTGTTGCCG (site CATCGAGCTCG) | 0.218
CAACGGCCTTGGGTTCTAACCTGTTGCCT (site CAAAGGCCTAG) | 0
CAACGGCCTTGGGTTCTAACCTGTTGCCT (site CAACGGCCTAG) | 0.796
CAACGGCCTTGGGTTCTAACCTGTTGCCT (site CAAGGGCCTAG) | 0.55
CAACGGCCTTGGGTTCTAACCTGTTGCCT (site CAATGGCCTAG) | 0.0566
CAACTAGCTTGGGTTCTAACCTGTTGCAT (site CAACTAGCTAT) | 0.691
CAACTAGCTTGGGTTCTAACCTGTTGCAT (site TTGTACACTGA) | 0.028
CAAGCACCTTGGGTTCTAACCTGTTGCTT (site CAAACACCTAA) | 0.121
CAAGCACCTTGGGTTCTAACCTGTTGCTT (site CAACCACCTAA) | 0.0852
CAAGCACCTTGGGTTCTAACCTGTTGCTT (site CAAGCACCTAA) | 0.187
CAAGCACCTTGGGTTCTAACCTGTTGCTT (site CAATCACCTAA) | 0.338

Sequence | recombinant barcode read abundance (log10)
CAAGGTCCTTGGGTTCTAACCTGTTGCGG (site CAAGGTCCTCC) | 2.68
CAAGGTCCTTGGGTTCTAACCTGTTGCGG (site GTTACCTCTAG) | 0.194
CAAGTGGCTTGGGTTCTAACCTGTTGCCT (site CAAGTAGCTAG) | 0.417
CAAGTGGCTTGGGTTCTAACCTGTTGCCT (site CAAGTCGCTAG) | 0.0501
CAAGTGGCTTGGGTTCTAACCTGTTGCCT (site CAAGTGGCTAG) | 1.21
CAAGTGGCTTGGGTTCTAACCTGTTGCCT (site CAAGTTGCTAG) | 0.721
CAATATCCTTGGGTTCTAACCTGTTGCCT (site CAATATCCTAG) | 1.09
CAATATCCTTGGGTTCTAACCTGTTGCCT (site CACTATCCTAG) | 0.0197
CAATATCCTTGGGTTCTAACCTGTTGCCT (site CAGTATCCTAG) | 0.143
CAATATCCTTGGGTTCTAACCTGTTGCCT (site CATTATCCTAG) | 0.0807
CAATCTACTTGGGTTCTAACCTGTTGCCT (site CAACCTACTAG) | 0.391
CAATCTACTTGGGTTCTAACCTGTTGCCT (site CAATCTACTAG) | 0.0558
CAATTACCTTGGGTTCTAACCTGTTGCTT (site CAATTACCTAA) | 0.682
CAATTACCTTGGGTTCTAACCTGTTGCTT (site GCGCCCTCTCG) | 0.0793
CACAAACCTTGGGTTCTAACCTGTTGCAG (site AGATGTGCTAG) | 0.054
CACAAACCTTGGGTTCTAACCTGTTGCAG (site CACAAACCTCT) | 1.17
CACAAGTCTTGGGTTCTAACCTGTTGCAG (site CACAAGTCTCG) | 0.519
CACAAGTCTTGGGTTCTAACCTGTTGCAG (site CACAAGTCTCT) | 2
CACAAGTCTTGGGTTCTAACCTGTTGCCG (site CACAAGTCTCG) | 0.657
CACAAGTCTTGGGTTCTAACCTGTTGCCG (site CACAAGTCTCT) | 0.182
CACACACCTTGGGTTCTAACCTGTTGCGT (site CACAATCCTAC) | 0.189
CACACACCTTGGGTTCTAACCTGTTGCGT (site CACACACCTAC) | 2.86

Sequence | recombinant barcode read abundance (log10)
CACACGGCTTGGGTTCTAACCTGTTGCCT (site CACACCGCTAG) | 0.246
CACACGGCTTGGGTTCTAACCTGTTGCCT (site CACACGGCTAG) | 0.518
CACACTACTTGGGTTCTAACCTGTTGCTT (site CACACTACTAA) | 0.0581
CACACTACTTGGGTTCTAACCTGTTGCTT (site TATACTACTAA) | 0.101
CACAGCACTTGGGTTCTAACCTGTTGCCT (site CACAACACTAG) | 0.065
CACAGCACTTGGGTTCTAACCTGTTGCCT (site CACACCACTAG) | 0.00856
CACAGCACTTGGGTTCTAACCTGTTGCCT (site CACAGCACTAG) | 1.44
CACAGCACTTGGGTTCTAACCTGTTGCCT (site CACATCACTAG) | 0.0547
CACAGGCCTTGGGTTCTAACCTGTTGCAG (site CACAGGCCTCT) | 1.98
CACAGGCCTTGGGTTCTAACCTGTTGCAG (site TGTTCAGCTAG) | 0.0715
CACATACCTTGGGTTCTAACCTGTTGCAT (site CACATACCTAT) | 1.87
CACATACCTTGGGTTCTAACCTGTTGCAT (site CACCTTCCTAT) | 0.0683
CACATCACTTGGGTTCTAACCTGTTGCCT (site CACAACACTAG) | 0.122
CACATCACTTGGGTTCTAACCTGTTGCCT (site CACACCACTAG) | 0.225
CACATCACTTGGGTTCTAACCTGTTGCCT (site CACAGCACTAG) | 0.0683
CACATCACTTGGGTTCTAACCTGTTGCCT (site CACATCACTAG) | 0.704
CACATGCCTTGGGTTCTAACCTGTTGCTG (site CACATGCCTCA) | 2
CACATGCCTTGGGTTCTAACCTGTTGCTG (site TTGTACACTGG) | 0.0315
CACCAGACTTGGGTTCTAACCTGTTGCCA (site ACAATCTCTGA) | 0.0296
CACCAGACTTGGGTTCTAACCTGTTGCCA (site CACCAGACTTG) | 0.539
CACCCACCTTGGGTTCTAACCTGTTGCCT (site AACCCACCTAG) | 0.0311
CACCCACCTTGGGTTCTAACCTGTTGCCT (site CACCCACCTAG) | 1.66

Sequence | recombinant barcode read abundance (log10)
CACCCACCTTGGGTTCTAACCTGTTGCCT (site GACCCACCTAG) | 0.0974
CACCCACCTTGGGTTCTAACCTGTTGCCT (site TACCCACCTAG) | 0.0304
CACCCTTCTTGGGTTCTAACCTGTTGCTC (site CACCCTTCTGA) | 1.94
CACCCTTCTTGGGTTCTAACCTGTTGCTC (site TCTGGCCCTAG) | 0.0488
CACCGAGCTTGGGTTCTAACCTGTTGCTA (site CACCGAGCTTA) | 0.528
CACCGAGCTTGGGTTCTAACCTGTTGCTA (site TTGACGACTCG) | 0.177
CACCTTCCTTGGGTTCTAACCTGTTGCAT (site CACATACCTAT) | 0.196
CACCTTCCTTGGGTTCTAACCTGTTGCAT (site CACCTTCCTAT) | 1.77
CACGACCCTTGGGTTCTAACCTGTTGCCT (site CAAGACCCTAG) | 0.0526
CACGACCCTTGGGTTCTAACCTGTTGCCT (site CACGACCCTAG) | 2.05
CACGACCCTTGGGTTCTAACCTGTTGCCT (site CAGGACCCTAG) | 0.0694
CACGACCCTTGGGTTCTAACCTGTTGCCT (site CATGACCCTAG) | 0.16
CACGAGGCTTGGGTTCTAACCTGTTGCCT (site CACGAGACTAG) | 0.707
CACGAGGCTTGGGTTCTAACCTGTTGCCT (site CACGAGCCTAG) | 0.0831
CACGAGGCTTGGGTTCTAACCTGTTGCCT (site CACGAGGCTAG) | 0.527
CACGAGGCTTGGGTTCTAACCTGTTGCCT (site CACGAGTCTAG) | 0.322
CACGATGCTTGGGTTCTAACCTGTTGCCT (site CAAGATGCTAG) | 0.437
CACGATGCTTGGGTTCTAACCTGTTGCCT (site CACGATGCTAG) | 0.789
CACGATGCTTGGGTTCTAACCTGTTGCCT (site CAGGATGCTAG) | 0.226
CACGATGCTTGGGTTCTAACCTGTTGCCT (site CATGATGCTAG) | 0.351
